For 3 compounds, EC50 and recovery results are on record in patent US9963496B2, “Stable glucagon analogues and use for treatment of hypoglycaemia” (Novo Nordisk A/S, priority 2014, dated 2018).

One data set has as its target T1, human glucagon receptor (Homo sapiens, UniProt P47871).
T1 construct: expressed in transfected cells; host or cells: BHK cells, clone BHK hGCGR A3*25; isolated membranes
As to the kind of experiment: Assay (I)(b): glucagon receptor activation, CRE luciferase reporter gene assay in BHK cells. Format: cell-based. As to conditions: BHK cells expressing human glucagon receptor and CRE luciferase, 3 h incubation; read-out: EC50 hGlucagonR. The protocol:
The purpose of this assay is to test the activity, or potency, of the derivatives of the invention, in vitro. The in vitro potency is the measure of human GLP-1 receptor and/or glucagon receptor activation, respectively, in a whole cell assay.
In vitro potency was determined by measuring the response of human GLP-1 or glucagon receptor, respectively, in a reporter gene assay. The assay was performed in a stably transfected BHK cell line that expressed either the human GLP-1 receptor or the human glucagon receptor and contained the DNA for the cAMP response element (CRE) coupled to a promoter and the gene for firefly luciferase (CRE luciferase). […] When assay incubation was completed, the luciferase substrate (luciferin) was added and the enzyme converted luciferin to oxyluciferin and produced bioluminescence. The luminescence was measured as the readout for the assay.
(b) Glucagon Receptor Activation
The cells used in this assay (clone pLJ6′-4-25) were BHK cells with BHK570 as a parent cell line expressing the CRE luciferase gene (clone BHK/KZ10-20-48) and were established by further transfection with the human glucagon receptor (clone pLJ6′ in pHZ-1 vector).
The cells were cultured at 5% CO2 in DMEM medium with 10% FBS, 1× GlutaMAX, 1 mg/mL G418, 240 nM MTX (methotrexate) and 1% pen/strep (penicillin/streptomycin). They were aliquoted and stored in liquid nitrogen. Before each assay, an aliquot was taken up and washed three times in PBS before being suspended at the desired concentration in assay buffer. For 96-well plates the suspension was made to give a final concentration of 5×10 EE3 cells/well.
Assay Medium consisted of DMEM w/o phenol red, 10 mM Hepes, lx GlutaMAX, 2% Ovalbumin and 0.2% Pluronic F-68.
Cell stocks were thawed in a 37° C. water bath. Cells were washed three times in PBS. The cells were counted and adjusted to 5×10 EE3 cells/50 μl (1×10 EE5 cells/mL) in Assay Medium. A 50 μl aliquot of cells was transferred to each well in the assay plate.
Stocks of the test compounds and reference compounds were diluted to a concentration of […] in Assay Medium. Compounds were diluted 10-fold to give the following concentrations: […], 2×10 EE-7 M, 2×10 EE-8 M; 2×10 EE-9 M, 2×10 EE-10 M, 2×10 EE-11 M, 2×10 EE-12 M and 2×10 EE-13 M. For each compound a blank assay buffer control was also included.
A 50 μl aliquot of compound or blank was transferred from the dilution plate to the assay plate. Compounds were tested at the following final concentrations: 1×10 EE-6 M, 1×10 EE-7 M, 1×10 EE-8 M; 1×10 EE-9 M, 1×10 EE-10 M, 1×10 EE-11 M and 1×10 EE-12 M and 1×10 EE-13 M.
The assay plate was incubated for 3 h in a 5% CO2 incubator at 37° C. The assay plate was removed from the incubator and allowed to stand at room temperature for 15 min. A 100 μl aliquot of steadylite plus reagent was added to each well of the assay plate (reagent is light sensitive). Each assay plate was covered with aluminum foil to protect it from light and shaken for 30 min at room temperature. Each assay plate was read in a Packard TopCount NXT instrument.
The data from the TopCount instrument was transferred to GraphPad Prism software. The software performed a non-linear regression (log(agonist) vs response-Variable slope (four parameter)). EC50 values were calculated by the software and reported in pM.

The next data set can be described thus: physchem. Format: physicochemical. To be noted: pH 7.5. From the text: Assay (III): ThT Fibrillation Assay for the Assessment of Physical Stability of Peptide Compositions The purpose of this assay is to assess the physical stability of the glucagon derivatives of the invention in aqueous solutions. Low physical stability of a peptide may lead to amyloid fibril formation, which is observed as well-ordered, thread-like macromolecular structures in the sample, which eventually may lead to gel formation. This has traditionally been measured by visual inspection of the sample. However, that kind of measurement is very cumbersome and depending on the observer. Therefore, the application of a small molecule indicator probe is much more advantageous. Thioflavin T (ThT) is such a probe and has a distinct fluorescence signature when binding to fibrils [Naiki et al. (1989) Anal. Biochem. 177, 244-249; LeVine (1999) Methods. Enzymol. 309, 274-284]. Here, as depicted in FIG. 1, F is the ThT fluorescence at the time t. The constant t0 is the time needed to reach 50% of maximum fluorescence. The two important parameters describing fibril formation are the lag-time calculated by t0−2τ and the apparent rate constant kapp 1/τ. Samples were prepared freshly before each assay. Each sample composition is described in the legends. The pH of the sample was adjusted to the desired value using appropriate amounts of concentrated NaOH and HCl. Thioflavin T was added to the samples from a stock solution in H2O to a final concentration of 1 μM. Sample aliquots of 200 μl (250 μM of the glucagon derivative/analogue in 10 mM HEPES buffer, pH 7.5) were placed in a 96 well microtiter plate (Packard OptiPlate™-96, white polystyrene). Usually, four or eight replica of each sample (corresponding to one test condition) was placed in one column of wells. The plate was sealed with Scotch Pad (Qiagen). Incubation at given temperature, shaking and measurement of the ThT fluorescence emission were done in a Fluoroskan Ascent FL fluorescence platereader (Thermo Labsystems). The plate was incubated 37° C. with orbital shaking adjusted to 960 rpm with an amplitude of 1 mm. Fluorescence measurement was done using excitation through a 444 nm filter and measurement of emission through a 485 nm filter. Each run was initiated by incubating the plate at the assay temperature for 10 min. The plate was measured every 20 minutes for a desired period of time. Between each measurement, the plate was shaken and heated as described. After completion of the ThT assay the four or eight replica of each sample was pooled and centrifuged at 20000 rpm for 30 minutes at 18° C. The supernatant was filtered through a 0.22 μm filter and an aliquot was transferred to a HPLC vial. The concentration of peptide in the initial sample and in the filtered supernatant was determined by reverse phase HPLC using an appropriate standard as reference. The percentage fraction the concentration of the filtered sample constituted of the initial sample concentration was reported as the recovery. The measurement points were saved in Microsoft Excel format for further processing and curve drawing and fitting was performed using GraphPad Prism. The background emission from ThT in the absence of fibrils was negligible. The data points were typically a mean of four or eight samples and shown with standard deviation error bars. Only data obtained in the same experiment (i.e. samples on the same plate) were presented in the same graph ensuring a relative measure of fibrillation between experiments. The data set may be fitted to Eq. (1).

pEC50: −log10 of the molar value. *1 amine or outer side, *2 acyl side, *3 side chain or, on linkers, in order; H or OH if unused. Where a SMILES comes first, the peptide text is derived from it. Side-chain parts run from the residue outwards. [ ]: non-standard residue; d: D form. The star is where a group is joined. γGlu = O=C(O)[C@H](CCC(=O)[*:2])N[*:1]; Desaminohistidyl = O=C(CCc1c[nH]cn1)*; Aib = CC(C)(N)C(=O)O

T1 sequence (P47871 26-477): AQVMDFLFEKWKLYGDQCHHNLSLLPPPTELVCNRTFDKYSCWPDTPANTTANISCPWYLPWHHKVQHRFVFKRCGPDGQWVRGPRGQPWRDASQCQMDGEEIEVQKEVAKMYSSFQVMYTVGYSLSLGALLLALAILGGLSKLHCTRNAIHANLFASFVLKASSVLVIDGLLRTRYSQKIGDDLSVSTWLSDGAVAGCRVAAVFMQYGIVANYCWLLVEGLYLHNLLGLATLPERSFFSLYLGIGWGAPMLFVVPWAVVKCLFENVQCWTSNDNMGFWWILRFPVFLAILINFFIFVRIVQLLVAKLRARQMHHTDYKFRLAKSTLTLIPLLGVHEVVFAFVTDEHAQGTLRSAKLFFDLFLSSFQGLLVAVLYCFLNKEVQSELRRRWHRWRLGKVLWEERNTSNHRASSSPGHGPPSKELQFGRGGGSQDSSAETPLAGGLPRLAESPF

In the case of `CC(=O)N[C@@H](CCC(=O)N[C@@H](CCC(=O)N[C@@H](CCC(=O)N[C@@H](CCC(=O)NCCCC[C@H](NC(=O)[C@@H](NC(=O)[C@H](Cc1ccccc1)NC(=O)[C@H](CC(=O)O)NC(=O)[C@H](CCC(N)=O)NC(=O)[C@H](C)NC(=O)[C@H](CCCNC(=N)N)NC(=O)[C@H](CCCNC(=N)N)NC(=O)C(C)(C)NC(=O)[C@H](CC(=O)O)NC(=O)[C@H](CC(C)C)NC(=O)[C@H](Cc1ccc(O)cc1)NC(=O)[C@H](CCCCN)NC(=O)[C@H](CO)NC(=O)[C@H](Cc1ccc(O)cc1)NC(=O)[C@H](CC(=O)O)NC(=O)[C@H](CO)NC(=O)[C@@H](NC(=O)[C@H](Cc1ccccc1)NC(=O)[C@@H](NC(=O)CNC(=O)[C@H](Cc1c[nH]cn1)NC(=O)[C@H](CO)NC(=O)CCc1c[nH]cn1)[C@@H](C)O)[C@@H](C)O)C(C)C)C(=O)N[C@@H](Cc1c[nH]c2ccccc12)C(=O)N[C@@H](CC(C)C)C(=O)N[C@@H](CC(C)C)C(=O)N[C@@H](CO)C(=O)N[C@H](C(=O)O)[C@@H](C)O)C(=O)O)C(=O)O)C(=O)O)C(=O)O` [Example 21, N^ϵ24-[(4S)-4-[[(4S)-4-[[(4S)-4-[[(4S)-4-acetamido-4-carboxybutanoyl]amino]-4-carboxybutanoyl]amino]-4-carboxybutanoyl]amino]-4-carboxybutanoyl]-[Imp1, His3, Aib16, Lys24, Leu27, Ser28]-Glucagon] (Desaminohistidyl-SHGTFTSDYSKYLD[Aib]RRAQDFVK([γGlu-γGlu-γGlu-γGlu-Ac])WLLST-OH), the negative logarithm of the EC50 (pEC50) (in general, the negative decadic logarithm of the EC50, by convention in mol/L) on human glucagon receptor was 11.70. In “physchem”, this compound displayed a recovery at 250 μM of 104%.
On to `CC(=O)N[C@@H](CCC(=O)N[C@@H](CCC(=O)N[C@@H](CCC(=O)N[C@@H](CCC(=O)NCCCC[C@H](NC(=O)[C@@H](NC(=O)[C@H](Cc1ccccc1)NC(=O)[C@H](CCC(=O)O)NC(=O)[C@H](CCC(N)=O)NC(=O)[C@H](C)NC(=O)[C@H](CCCNC(=N)N)NC(=O)[C@H](CCCNC(=N)N)NC(=O)[C@H](CO)NC(=O)[C@H](CCC(=O)O)NC(=O)[C@H](CC(C)C)NC(=O)[C@H](Cc1ccc(O)cc1)NC(=O)[C@H](CCCCN)NC(=O)[C@H](CO)NC(=O)[C@H](Cc1ccc(O)cc1)NC(=O)[C@H](CC(=O)O)NC(=O)[C@H](CO)NC(=O)[C@@H](NC(=O)[C@H](Cc1ccccc1)NC(=O)[C@@H](NC(=O)CNC(=O)[C@H](Cc1c[nH]cn1)NC(=O)C(C)(C)NC(=O)CCc1c[nH]cn1)[C@@H](C)O)[C@@H](C)O)C(C)C)C(=O)N[C@@H](Cc1c[nH]c2ccccc12)C(=O)N[C@@H](CC(C)C)C(=O)N[C@@H](CC(C)C)C(=O)N[C@@H](CO)C(=O)N[C@H](C(=O)O)[C@@H](C)O)C(=O)O)C(=O)O)C(=O)O)C(=O)O` [Example 7, N^ϵ24-[(4S)-4-[[(4S)-4-[[(4S)-4-[[(4S)-4-acetamido-4-carboxybutanoyl]amino]-4-carboxybutanoyl]amino]-4-carboxybutanoyl]amino]-4-carboxybutanoyl]-[Imp1, Aib2, His3, Glu15, Glu21, Lys24, Leu27, Ser28]-Glucagon] (Desaminohistidyl-[Aib]HGTFTSDYSKYLESRRAQEFVK([γGlu-γGlu-γGlu-γGlu-Ac])WLLST-OH), for which the pEC50 on human glucagon receptor is 11.70. The recovery at 250 μM in the data set “physchem” is 100%.
As for `CC(=O)N[C@@H](CCC(=O)N[C@@H](CCC(=O)N[C@@H](CCC(=O)N[C@@H](CCC(=O)NCCCC[C@H](NC(=O)[C@H](CC(C)C)NC(=O)[C@H](CC(C)C)NC(=O)[C@H](Cc1c[nH]c2ccccc12)NC(=O)[C@H](CCC(N)=O)NC(=O)[C@@H](NC(=O)[C@H](Cc1ccccc1)NC(=O)[C@H](CCC(=O)O)NC(=O)[C@H](CCC(N)=O)NC(=O)[C@H](C)NC(=O)[C@H](CCCNC(=N)N)NC(=O)[C@H](CCCNC(=N)N)NC(=O)[C@H](CO)NC(=O)[C@H](CCC(=O)O)NC(=O)[C@H](CC(C)C)NC(=O)[C@H](Cc1ccc(O)cc1)NC(=O)[C@H](CCCCN)NC(=O)[C@H](CO)NC(=O)[C@H](Cc1ccc(O)cc1)NC(=O)[C@H](CC(=O)O)NC(=O)[C@H](CO)NC(=O)[C@@H](NC(=O)[C@H](Cc1ccccc1)NC(=O)[C@@H](NC(=O)CNC(=O)[C@H](Cc1c[nH]cn1)NC(=O)[C@H](CO)NC(=O)CCc1c[nH]cn1)[C@@H](C)O)[C@@H](C)O)C(C)C)C(=O)N[C@H](C(=O)O)[C@@H](C)O)C(=O)O)C(=O)O)C(=O)O)C(=O)O` [Example 14, N^ϵ28-[(4S)-4-[[(4S)-4-[[(4S)-4-[[(4S)-4-acetamido-4-carboxybutanoyl]amino]-4-carboxybutanoyl]amino]-4-carboxybutanoyl]amino]-4-carboxybutanoyl]-[Imp1, His3, Glu15, Glu21, Leu27, Lys28]-Glucagon] (Desaminohistidyl-SHGTFTSDYSKYLESRRAQEFVQWLLK([γGlu-γGlu-γGlu-γGlu-Ac])T-OH), at human glucagon receptor, the pEC50 was 11.22. Besides, in the data set “physchem”, the recovery at 250 μM stood at 98%.
